# Data reported in patent publication US6596290B2 (priority 2001, dated 2003).
# Where “and” joins values, the source holds several entries; their conditions need not be identical. Equal entries are not always repeated. Where two headings read alike, the source gives them in different places.
# Columns and labels:
# S. aureus (MN8) = type: cell-based, Staphylococcus aureus
# TSST-1 = type: cell-based, Staphylococcus aureus
Compound,CFU/mL (S. aureus (MN8)),Reduction of Toxin % (TSST-1),ng TSST-1 per OD Unit (TSST-1),"Optical Density (S. aureus (MN8); 0.01% test compound, Table 3)",further results
CC(=O)/C=C/C1=C(C)CCCC1(C)C [Beta-ionone],1.8E + 08 CFU/mL,100%,none,,Optical Density (S. aureus (MN8)): 0.688
"CC1(O)CCC(C(C)(C)O)CC1 (centres unmarked) [p-menthane-1,8-diol]",2.0E + 09 CFU/mL,78%,792 ng TSST-1 per OD Unit,,"Optical Density (S. aureus (MN8); 0.7% test compound, Table 3): 0.620"
myreth-3-myristate [Cetiol],,,,,CFU/mL × 10^8 (S. aureus (MN8)): 4.2 and 5.9 and 5.0; ng TSST-1 per CFU (TSST-1): 371 ng TSST-1 per CFU and 196 ng TSST-1 per CFU and 200 ng TSST-1 per CFU; ng TSST-1 per mL (TSST-1): 1556 ng TSST-1 per mL and 1147 ng TSST-1 per mL and 989 ng TSST-1 per mL
CC(C)=CCC/C(C)=C/CO [Geraniol],3.2E + 08 CFU/mL,99%,26 ng TSST-1 per OD Unit,0.0569,
C=CC(C)(O)CCC=C(C)C (centres unmarked) [Linalool],2.0E + 09 CFU/mL,88%,421 ng TSST-1 per OD Unit,0.600,
CC1CCC(C(C)C)C(O)C1 (centres unmarked) [Menthol],,,,,"effect on the growth of S. aureus cells (S. aureus (MN8)): minimal, if any, effect; Optical Density (S. aureus (MN8); 0.1% test compound (in methanol), S. aureus MN8, 24 h, 600 nm): 0.621; CFU/mL (S. aureus (MN8); 24 h): 6.3E + 08 CFU/mL; ng TSST-1 per OD Unit (TSST-1; 24 h): 33 ng TSST-1 per OD Unit"
